# Experimental data: US11578055B2, “Triazacyclododecansulfonamide (“TCD”)-based protein secretion inhibitors” (KEZAR LIFE SCIENCES, priority 2018, dated 2023)
# Experiments:
# [1] = system: multiple myeloma cell line NCl-H929; experiment: H929 Cell Viability Assay; assay type: cell-based, human; details: Homo sapiens, NCI-H929, 48 h, H929, Celltiter-Glo
# Procedure, shortened: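 Viability was determined by CellTiter-Glo luminescence after a 48 h, 37 °C exposure of NCI-H929 cells to serial compound dilutions in medium containing 10% FBS. Where stereochemistry is not shown, values refer to a mix of stereoisomers.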
# [2] = system: full length IL-2 (amino acids 1-153) fused to Gaussia Luciferase; experiment: Dox Induced IL2-FL-Gluc Assay; assay type: cell-based; details: 24 hr, Dox inducible, 293FRT/TO cells; read-out: 24 hr Dox Inducible IL2FLGluc 293FRT/TO: Mean IC50
# Procedure, shortened: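 Compounds in DMSO/media with doxycycline were added to cells plated the previous day and incubated at 37° C, 5% CO2. Cells: stable Flp-In 293 T-REx line, Dox-regulated expression of IL-2 (aa 1-153) fused at its C-terminus to Gaussia luciferase.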
# [3] = system: full length TNFα (amino acids 1-233) fused to Gaussia Luciferase; experiment: Dox Induced TNFα-FL-Gluc Assay; assay type: cell-based; details: 24 hr, Dox inducible, 293FRT/TO cells; read-out: 24 hr Dox Inducible TNFaFLGluc 293FRT/TO: Mean IC50
# Procedure, shortened: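 Compounds diluted in DMSO/medium with doxycycline were incubated at 37° C, 5% CO2 with 293 T-REx cells stably carrying a Tet-regulated TNFα(1-233)-Gaussia luciferase construct. Data for structures drawn without stereochemistry refer to stereoisomer mixtures.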
# [4] = system: HER3 signal sequence plus 4 amino acids fused to Gaussia Luciferase (HER3-ss+4aa/Gaussia Luciferase); experiment: Dox Induced HER3-ss-Gluc Assay; assay type: cell-based; details: 24 hr, doxycycline induced, Flp-In 293 T-REx cells; read-out: 24 hr Dox Inducible Her3(ss + 4) Gluc 293FRT/TO: Mean 1050
# Procedure, shortened: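 Stable Flp-In 293 T-REx line expressing HER3 signal sequence+4aa/Gaussia luciferase under doxycycline-inducible control. Cells plated the day before; compound dilutions added in doxycycline-containing medium and incubated at 37° C, 5% CO2.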
# [5] = In Vitro Microsome Stability Assay (human); assay type: in vitro ADME; details: human liver microsomes, 30 min w/ NADPH
# Procedure, shortened: (§1)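 The value reported is the percentage of parent left after 30 min, calculated from analyte/IS peak-area ratios relative to time zero by LC-MS/MS. Incubations ran at 37° C in 0.1 M potassium phosphate with NADPH and microsomes (stock 20 mg/mL), with compound added from a 0.25 mM DMSO stock. Acetonitrile containing IS stopped the reactions.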
# [6] = In Vitro Microsome Stability Assay (monkey); assay type: in vitro ADME; details: monkey liver microsomes, 30 min w/ NADPH
# Procedure, shortened: as §1
# [7] = In Vitro Microsome Stability Assay (mouse); assay type: in vitro ADME; details: mouse liver microsomes, 30 min w/ NADPH
# Procedure, shortened: as §1
# [8] = In Vitro Microsome Stability Assay (rat); assay type: in vitro ADME; details: rat liver microsomes, 30 min w/ NADPH
# Procedure, shortened: as §1
# [9] = system: PD1 signal sequence plus 10 amino acids fused to Gaussia Luciferase (PD1-ss+10aa/Gaussia Luciferase); experiment: Dox Induced PD1-ss-Gluc Assay; assay type: cell-based; details: 24 hr, Dox inducible, 293FRT/TO cells; read-out: 24 hr Dox Inducible PD1ssGluc 293FRT/TO: Mean IC50
# Procedure, shortened: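 Compound dilutions in DMSO/media containing doxycycline were applied to a stable, inducible 293 T-REx line carrying the luciferase fusion, then incubated at 37 °C, 5% CO2. Where stereochemistry is not drawn, values relate to isomer mixtures.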
# [10] = system: multiple myeloma cell line U266B1; experiment: U266 Cell Viability Assay; assay type: cell-based, human; details: Homo sapiens, U-266; 48 hr, U266, Celltiter-Glo
# Procedure, shortened: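 Viability was measured by CellTiter-Glo luminescence after 48 h compound exposure at 37° C, 5% CO2. The cells were U266B1 multiple myeloma cells grown in RPMI 1640 plus 10% FBS. Where stereochemistry is not shown, values apply to the stereoisomer mixture.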
Structure (SMILES),EC50 [1],IC50 [2],IC50 [3],IC50 [4],Liver Microsome Stability-% Left after 30 min w/ NADPH (%) Human [5],Liver Microsome Stability-% Left after 30 min w/ NADPH (%) Monkey [6],Liver Microsome Stability-% Left after 30 min w/ NADPH (%) Mouse [7],Liver Microsome Stability-% Left after 30 min w/ NADPH (%) Rat [8],IC50 [9],EC50 [10]
"C[C@H]1CN(S(=O)(=O)c2ccc(N(C)C)cc2)CCCN(CC(C)(C)C)CCCN(S(=O)(=O)N2CCc3cc(Cl)ccc3C2)C1 [A107, 4-{[(3S)-5-[(6-chloro-1,2,3,4-tetrahydroisoquinolin-2-yl)sulfonyl]-9-(2,2-dimethylpropyl)-3-methyl-1,5,9-triazacyclododecan-1-yl]sulfonyl}-N,N-dimethylaniline]",1180 nM,73 nM,609 nM,44.2 nM,83.9%,25.0%,16.1%,19.3%,26.1 nM,> 25000 nM
"COc1cc(F)ccc1N1CCN(S(=O)(=O)N2CCCN([C@@H](C)C3CCCCC3)CCCN(S(=O)(=O)c3ccc(N(C)C)cc3)C[C@H](C)C2)C[C@H]1C [A207, 4-{[(3S)-9-[(1 S)-1-cyclohexylethyl]-5-{[(3 R)-4-(4-fluoro-2-methoxyphenyl)-3-methylpiperazin-1-yl]sulfonyl}-3-methyl-1,5,9-triazacyclododecan-1-yl]sulfonyl}-N,N-dimethylaniline]",106 nM,10.6 nM,221 nM,18 nM,62.7%,63.0%,84.3%,98.8%,7.93 nM,> 25000 nM
"COc1ccc(N2CCN(S(=O)(=O)N3CCCN(CC4CCCCC4)CCCN(S(=O)(=O)c4ccc(N(C)C)cc4)C[C@H](C)C3)CC2)cc1 [A199, 4-{[(3S)-9-(cyclohexylmethyl)-5-{[4-(4-methoxyphenyl)piperazin-1-yl]sulfonyl}-3-methyl-1,5,9-triazacyclododecan-1-yl]sulfonyl}-N,N-dimethylaniline]",> 25000 nM,162 nM,1420 nM,132 nM,8.0%,25.5%,23.7%,28.3%,80.8 nM,> 25000 nM
"C[C@H]1CN(S(=O)(=O)c2ccc(N(C)C)cc2)CCCN(CC2CCCCC2)CCCN(S(=O)(=O)N2CCN(c3ccc(F)cc3Cl)CC2)C1 [A206, 4-{[(3S)-5-{[4-(2-chloro-4-fluorophenyl)piperazin-1-yl]sulfonyl}-9-(cyclohexylmethyl)-3-methyl-1,5,9-triazacyclododecan-1-yl]sulfonyl}-N,N-dimethylaniline]",657 nM,39 nM,395 nM,38.2 nM,54.7%,65%,84.3%,80.5%,17.4 nM,> 25000 nM
"C[C@H]1CN(S(=O)(=O)c2ccc(N(C)C)cc2)CCCN(CC2CCC(F)CC2)CCCN(S(=O)(=O)N2CCc3cc(Cl)ccc3C2)C1 (stereo partly drawn) [A204, 4-{[(3S)-5-[(6-chloro-1,2,3,4-tetrahydroisoquinolin-2-yl)sulfonyl]-9-[(4-fluorocyclohexyl)methyl]-3-methyl-1,5,9-triazacyclododecan-1-yl]sulfonyl}-N,N-dimethylaniline]",1490 nM,158 nM,982 nM,134 nM,48.4%,49.7%,62.6%,58.3%,58.4 nM,> 25000 nM
"C[C@H]1CN(S(=O)(=O)c2ccc(N(C)C)cc2)CCCN(CC2CCCCC2)CCCN(S(=O)(=O)N2CCN(c3ccccc3Cl)CC2)C1 [A198, 4-{[(3S)-5-{[4-(2-chlorophenyl)piperazin-1-yl]sulfonyl}-9-(cyclohexylmethyl)-3-methyl-1,5,9-triazacyclododecan-1-yl]sulfonyl}-N,N-dimethylaniline]",1170 nM,53.3 nM,373 nM,44.1 nM,39.2%,65.1%,68.2%,61.4%,18.5 nM,> 25000 nM
COc1cc(F)cc(N2[C@H](C)CN(S(=O)(=O)N3CCCN(CC4CCCCC4)CCCN(S(=O)(=O)c4ccc(N(C)C)cc4)C[C@H](C)C3)C[C@@H]2C)c1 [A197],4130 nM,95.5 nM,666 nM,77.5 nM,70.7%,92.8%,65.4%,76.6%,34.2 nM,> 25000 nM
CC[C@H]1CN(S(=O)(=O)c2ccc(N(C)C)cc2)CCCN(CC2CCCCC2)CCCN(S(=O)(=O)N2CCc3cc(Cl)ccc3C2)C1 [A182],> 25000 nM,256 nM,1960 nM,203 nM,53.7%,41.5%,61.7%,41.9%,78.8 nM,> 25000 nM
"C[C@H]1CN(S(=O)(=O)c2ccc(C(=O)N(C)C)cc2)CCCN(CC2CCCCC2)CCCN(S(=O)(=O)N2CCc3cc(Cl)ccc3C2)C1 [A179, 4-{[(3S)-5-[(6-chloro-1,2,3,4-tetrahydroisoquinolin-2-yl)sulfonyl]-9-(cyclohexylmethyl)-3-methyl-1,5,9-triazacyclododecan-1-yl]sulfonyl}-N,N-dimethylbenzamide]",11300 nM,72.6 nM,3250 nM,400 nM,0.04%,0.26%,0.5%,0.18%,270 nM,> 25000 nM
"COc1ccc(N2CCN(S(=O)(=O)N3CCCN(CC4CCCCC4)CCCN(S(=O)(=O)c4ccc(N(C)C)cc4)C[C@H](C)C3)CC2)cc1F [A202, 4-{[(3S)-9-(cyclohexylmethyl)-5-{[4-(3-fluoro-4-methoxyphenyl)piperazin-1-yl]sulfonyl}-3-methyl-1,5,9-triazacyclododecan-1-yl]sulfonyl}-N,N-dimethylaniline]",2910 nM,176 nM,2050 nM,130 nM,13.3%,38.3%,55.0%,50.8%,56.6 nM,> 25000 nM
